The text below walks through data of PubChem BioAssay AID328 (DTP/NCI, 2004).

“And” between values parts separate entries of the source, which are not always exact repeats. Equal entries are not always repeated. Toxic doses and inconclusive results are not listed.

The subject of this assay is BDF1 mice, P388 leukemia ip, median survival T/C. Description: NCI In Vivo Anticancer Drug Screen. Data for tumor model P388 Leukemia (intraperitoneal) in B6D2F1 (BDF1) mice. As to conditions: endpoint: median survival time, higher = longer survival. In short, it runs like this:
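Read-out is survival of treated animals expressed relative to the vehicle group, as a T/C ratio.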

Where [1] appears, read: dose: 50.0 mg/kg/injection, schedule: Q01DX009 (ip), vehicle: saline with Tween-80.
Setting [2] is: dose: 50.0 mg/kg/injection, schedule: Q04DX003 (ip), vehicle: saline with Tween-80.
The mark [3] stands for this setting: dose: 100.0 mg/kg/injection, schedule: Q04DX003 (ip), vehicle: saline with Tween-80.
[4] abbreviates: dose: 200.0 mg/kg/injection, schedule: Q01DX009 (ip), vehicle: saline with Tween-80.
The mark [5] stands for this setting: dose: 200.0 mg/kg/injection, schedule: Q04DX003 (ip), vehicle: saline with Tween-80.
Where [6] appears, read: dose: 400.0 mg/kg/injection, schedule: Q01DX009 (ip), vehicle: saline with Tween-80.
[7] abbreviates: dose: 100.0 mg/kg/injection, schedule: Q01DX009 (ip), vehicle: Klucel (hydroxypropylcellulose) (HPC).
Where [8] appears, read: dose: 100.0 mg/kg/injection, schedule: Q04DX003 (ip), vehicle: Klucel (hydroxypropylcellulose) (HPC).
Where [9] appears, read: dose: 200.0 mg/kg/injection, schedule: Q01DX009 (ip), vehicle: Klucel (hydroxypropylcellulose) (HPC).
Where [10] appears, read: dose: 200.0 mg/kg/injection, schedule: Q04DX003 (ip), vehicle: Klucel (hydroxypropylcellulose) (HPC).
[11] abbreviates: dose: 100.0 mg/kg/injection, schedule: Q01DX009 (ip), vehicle: saline with Tween-80.
Where [12] appears, read: dose: 50.0 mg/kg/injection, schedule: Q01DX001 (ip), vehicle: saline.

For `COc1cc(C=Nc2cccc(Cl)c2)ccc1N(CCCl)CCCl`, the T/C is, setting by setting: (dose: 8.0 mg/kg/injection, schedule: Q04DX003 (ip), vehicle: saline with Tween-80) 195 % of control; (dose: 12.5 mg/kg/injection, schedule: Q01DX009 (ip), vehicle: saline with Tween-80) 187 % of control; (dose: 16.0 mg/kg/injection, schedule: Q04DX003 (ip), vehicle: saline with Tween-80) 187 % of control; (dose: 25.0 mg/kg/injection, schedule: Q01DX009 (ip), vehicle: saline with Tween-80) 187 % of control; (dose: 33.0 mg/kg/injection, schedule: Q04DX003 (ip), vehicle: saline with Tween-80) 207 % of control; under setting [1], 95 % of control. For the same compound, under setting [2], the T/C is 230 % of control.

`N[C@@H](Cc1ccc(O)c(O)c1)C(=O)O`: the T/C (dose: 50.0 mg/kg/injection, schedule: Q01DX010 (ip), vehicle: saline) is 92 % of control; the T/C (dose: 100.0 mg/kg/injection, schedule: Q01DX010 (ip), vehicle: saline) is 96 % of control; the T/C (dose: 200.0 mg/kg/injection, schedule: Q01DX010 (ip), vehicle: saline) is 100 % of control; the T/C (dose: 400.0 mg/kg/injection, schedule: Q01DX010 (ip), vehicle: saline) is 107 % of control.

For the compound `C#CCCC#C`, the T/C by setting is: under setting [2], 100 % of control; (dose: 67.0 mg/kg/injection, schedule: Q01DX005 (ip), vehicle: saline with Tween-80) 96 % of control; (dose: 100.0 mg/kg/injection, schedule: Q01DX005 (ip), vehicle: saline with Tween-80) 115 % of control; under setting [3], 104 % of control; (dose: 150.0 mg/kg/injection, schedule: Q01DX005 (ip), vehicle: saline with Tween-80) 92 % of control; under setting [4], 103 % of control. The T/C under setting [5] was 108 % of control and the T/C under setting [6] was 111 % of control.

As for `IP(c1ccccc1)(c1ccccc1)(c1ccccc1)N1C2CCCCC21` (stereo not drawn), the T/C is 104 % of control and 113 % of control (dose: 0.07 mg/kg/injection, schedule: Q01DX009 (ip), vehicle: saline); 150 % of control and 156 % of control (dose: 0.15 mg/kg/injection, schedule: Q01DX009 (ip), vehicle: saline); 109 % of control (dose: 0.23 mg/kg/injection, schedule: Q04DX003 (ip), vehicle: saline); 150 % of control (dose: 0.31 mg/kg/injection, schedule: Q01DX009 (ip), vehicle: saline); 118 % of control (dose: 0.46 mg/kg/injection, schedule: Q04DX003 (ip), vehicle: saline); 166 % of control (dose: 0.6 mg/kg/injection, schedule: Q01DX009 (ip), vehicle: saline). Further, the T/C is, setting by setting: (dose: 0.62 mg/kg/injection, schedule: Q04DX003 (ip), vehicle: saline) 113 % of control; (dose: 0.93 mg/kg/injection, schedule: Q04DX003 (ip), vehicle: saline) 118 % of control; (dose: 1.2 mg/kg/injection, schedule: Q01DX009 (ip), vehicle: saline) 156 % of control.

On to `CCCC(=O)Nc1ccc(NS(C)(=O)=O)cc1OC`, for which the T/C runs as follows: under setting [7], 95 % of control; under setting [8], 100 % of control; under setting [9], 90 % of control; under setting [10], 95 % of control; (dose: 400.0 mg/kg/injection, schedule: Q01DX009 (ip), vehicle: Klucel (hydroxypropylcellulose) (HPC)) 90 % of control.

With `CCC(=O)c1cc([N+](=O)[O-])ccc1N`, the T/C was 90 % of control under setting [2], 95 % of control under setting [3] and 109 % of control under setting [5].

Regarding `C[C@]12CC[C@@H]3c4ccc(Oc5nc(N6CC6)nc(N6CC6)n5)cc4CC[C@H]3[C@@H]1CCC2=O`, the T/C is 91 % of control (dose: 3.12 mg/kg/injection, schedule: Q01DX009 (ip), vehicle: saline with Tween-80) and 100 % of control (dose: 6.25 mg/kg/injection, schedule: Q01DX009 (ip), vehicle: saline with Tween-80).

In the case of `O=C1NN(c2ccccc2)C(=O)/C1=C\c1ccccc1O`, where the note is “dose: 350.0 mg/kg/injection, schedule: Q01DX009 (ip), vehicle: saline with Tween-80”, the T/C was 97 % of control.

With `O=C1/C(=C/c2ccccc2O)SC(=S)N1CCCN1CCOCC1`, the T/C under setting [1] was 95 % of control, the T/C under setting [11] was 100 % of control and the T/C under setting [4] was 90 % of control.

For `Cc1ccc(NC(=O)c2ccccc2C(=O)O)cc1Cl`, the T/C is 95 % of control under setting [8]; 95 % of control under setting [10]; 91 % of control (dose: 400.0 mg/kg/injection, schedule: Q04DX003 (ip), vehicle: Klucel (hydroxypropylcellulose) (HPC)).

With `[Cr+6].[NH2-].[NH2-].[NH2-].[NH2-].[NH2-].[NH2-]`, the T/C by setting is: (dose: 4.1 mg/kg/injection, schedule: Q04DX003 (ip), vehicle: saline) 116 % of control; (dose: 5.4 mg/kg/injection, schedule: Q04DX003 (ip), vehicle: saline) 109 % of control; (dose: 6.25 mg/kg/injection, schedule: Q01DX009 (ip), vehicle: saline) 120 % of control; (dose: 8.2 mg/kg/injection, schedule: Q01DX009 (ip), vehicle: saline) 122 % of control; (dose: 8.2 mg/kg/injection, schedule: Q04DX003 (ip), vehicle: saline) 109 % of control; (dose: 25.0 mg/kg/injection, schedule: Q01DX001 (ip), vehicle: saline) 112 % of control. For the same compound, the T/C under setting [12] is 112 % of control.

For the compound `COc1cc(NC(=O)CC(C)=O)c(OC)cc1Cl`, the T/C was 95 % of control under setting [11], 100 % of control under setting [4] and 104 % of control under setting [6].

With `CCOC(=O)c1ccc(NC(=O)Nc2c(C)n(C)n(-c3ccccc3)c2=O)cc1`, the T/C was 100 % of control (dose: 50.0 mg/kg/injection, schedule: Q01DX009 (ip), vehicle: Klucel (hydroxypropylcellulose) (HPC)); 100 % of control under setting [7]; 90 % of control under setting [9].

Regarding `CSc1nnc(-c2ccncc2)s1`, the T/C reads like this: under setting [12], 100 % of control; (dose: 100.0 mg/kg/injection, schedule: Q01DX001 (ip), vehicle: saline) 100 % of control; (dose: 200.0 mg/kg/injection, schedule: Q01DX001 (ip), vehicle: saline) 100 % of control.

On to `COc1cccc2c1C13CC(C)CC(C2)C1CCC(=O)N3` (stereo not drawn), for which the T/C by setting is: (dose: 75.0 mg/kg/injection, schedule: Q04DX003 (ip), vehicle: saline) 100 % of control; (dose: 150.0 mg/kg/injection, schedule: Q04DX003 (ip), vehicle: saline) 105 % of control; (dose: 300.0 mg/kg/injection, schedule: Q04DX003 (ip), vehicle: saline) 116 % of control.

With `COC(=O)CNC(=O)C(Cc1ccc(OCc2ccccc2)cc1)NC(=O)OC(C)(C)C` (stereo not drawn), the T/C reads like this: under setting [3], 105 % of control; under setting [5], 120 % of control; (dose: 400.0 mg/kg/injection, schedule: Q04DX003 (ip), vehicle: saline with Tween-80) 120 % of control.

As for `COC1C(=[N+]=[N-])C(=O)NC(=O)N1C` (stereo not drawn), the T/C (dose: 12.5 mg/kg/injection, schedule: Q04DX003 (ip), vehicle: water) is 120 % of control.
